In patent US20160083424A1, “COMPOSITIONS AND METHODS FOR TARGETING ANTIGEN-PRESENTING CELLS” (OSLO UNIVERSITETSSYKEHUS HF, priority 2013, published 2016):

Tests used:
iDCs [1] = test: Peptide binding by flow cytometry; design: species or system human; conditions: iDCs
Protocol: The cells were seeded onto 24-well plate (3×10^5/well/0.5 ml) in X-vivo 15 medium and incubated overnight at 37° C. Subsequently, they were incubated with 6IAF-conjugated peptides (5 μg/ml) for 30 min at 37° C., gently scraped, washed 3 times and then analyzed by flow cytometry. Binding was also performed at 4° C.

iDCs [2] = test: Peptide binding and internalization by fluorescence microscopy; type: cell-based, human; conditions: 37° C.
Protocol: Then the medium was replaced with fresh medium and the cells were incubated with the peptides (5 μg/ml) for 60 min at 37° C. followed by 5 min incubation with Hoechst 33342 (Invitrogen Dynal AS, Oslo, Norway). The cells were washed twice with PBS and fixed with 4% paraformaldehyde for 15 min at 4° C. After washing, slides were covered with Dako cytomation fluorescent mounting medium and then images were taken with either epifluorescence (Leica DM RHC, Leica Microscopy As, Oslo, Norway) or confocal microscopy (Zeiss LSM 510, […]).

[3] = tested on: PBMC cultures from CMV-positive donors; test: IFN-γ production in PBMC cultures; type: cell-based, human
Protocol: (A) PBMCs from HLA-A2+/CMV-positive donors were incubated with the indicated fusion peptides for 60 min at 4° C., washed and then incubated at 37° C. for […]. T-cell proliferation was monitored by thymidine incorporation. (B) Dextramer staining of CD8 T cells against NLVPMVATV (SEQ ID NO:19) epitope. (C) As in A and B, but monocyte-depleted PBMCs were used. (D) INF-γ and IL-10 levels in PBMC culture supernatants determined by ELISA.
Next, the immunostimulatory potential of the NW-pp65 fusion peptide was evaluated by assessing its ability to stimulate the overall IFN-γ and IL-10 production in PBMC cultures from CMV-positive donors (FIG. 8D).

NWYLPWLGTNDWGCFTWPPWQAGILARNLVPMVATVQGQNLKYQEFFWDANDIYRIFAEL [NW-60-mer, 48-mer CMV pp65 peptide fused to NW peptide]
binding of 6IAF-conjugated pp65 fusion peptides to DCs (iDCs [1]): bound to iDCs | internalization by iDCs (confocal microscopy) (iDCs [2]): internalized | total amounts of secreted IFN-γ ([3]; ELISA of PBMC culture supernatants, relative to untargeted peptide, n=4): significant increase | proportion of CD8 and CD4 T cells that produced IFN-γ ([3]; PBMCs from HLA-A2+/CMV positive): significant increase
